In data set [1] the test system is glycine binding site of the NMDA receptor. The following applies: cited from earlier work.
The conditions of data set [2]: cited from earlier work.
In another data set the test system is glycine/NMDA receptor. Nature of the data set: 1 μM glycine-stimulated [3H]-MK801 binding assay (glycine/NMDA receptor). Details: species or system rat. The conditions noted are these: for potency relative to 5,7-dichlorokynurenic acid (DCK): % of DCK; for Ki: glycine/NMDA receptor binding. The protocol:
This assay takes advantage of the fact that the binding of [^3 H]-MK801 to the PCP receptor inside the pore of the NMDA channel is dependent on the presence of both glutamate and glycine. In the absence of glycine but in the presence of glutamate, [^3 H]-MK801 cannot bind effectively to the PCP receptor, because the NMDA channel remains closed and access of [^3 H]-MK801 to the PCP receptor inside the closed channel pore is severely restricted.
The assay is conducted using rat brain membrane homogenates which are enriched in NMDA receptors. The membranes are prepared as follows. Frozen rat brains obtained from Pel-Freez, Rogers, Arkansas) are homogenized in 15 volumes (w/v) of ice cold 0.32M sucrose. The homogenate is spun at 1,000×g for ten minutes. The supernatant is collected and spun for 20 minutes at 44,000×g. The pellet is suspended in 15 volumes of water (relative to original brain weight). The homogenate is again spun at 44,000×g for twenty minutes. The pellet is resuspended in 5 volumes of water and the suspension is freeze-thawed 2 times. After the final thaw cycle, the suspension is brought to 15 volumes with water and spun at 44,000×g for twenty minutes. The pellet is resuspended in 5 volumes of ice-cold 10 mM HEPES, and is titrated to pH 7.4 with KOH containing 0.04% Triton X-100. Membranes are incubated with the Triton/HEPES buffer at 37° C. for 15 minutes. The volume is then brought to 15 with ice-cold 10 mM HEPES, pH 7.4, and spun/washed three times with spins of 44,000×g between washes. The final pellet is suspended in three volumes of 50 mM HEPES, pH 7.4 and the protein concentration is determined with a standard dye-binding protein assay (Bio-Rad, Richmond, Calif.). The suspension is stored at-80° C. until used. Only HPLC grade water is used for all buffers and suspensions/washings. The extensive washings are necessary to remove as much endogenous glycine from the membrane preparation as possible.
Nonspecific binding is defined as the […] presence of PCP (final concentration: 100 μM). To determine the effect of 1 μM glycine on the binding of [3H]-MK801, bound radioactivity in the presence of 10 μM glutamate alone (final concentration) is subtracted from the bound radioactivity in the presence of both 10 μM glummate and 1 μM glycine (final concentration). A 500 nM concentration (final) of 5,7-dichlorokynurenic (DCK) acid is added to all assay tubes. This concentration of the glycine antagonist DCK "buffers" most of the residual endogenous glycine that is not removed by the extensive washing steps that are carried out during the membrane preparation procedure.
The assays are incubated for 120 minutes at room temperature after which time the membrane-bound radioactivity is isolated from the free radioactivity by vacuum filtration through Whatman glass fiber filters that had been pretreated with 0.3% polyethyleneimine. Filtration is accomplished using a Brandel 48 well cell harvester. Filtered membranes are washed three times with 3 ml each of ice cold buffer. Filters are transferred to scintillation vials and 5 ml of scintillation cocktail is added. The vials are shaken overnight and the radioactivity is counted by liquid scintillation spectroscopy. The assays are done in triplicate and all experiments are conducted at least three times.

For a further data set, the target named is PCP receptor. The conditions noted are these: cited from earlier work.
A further data set deals with neurons. The conditions noted are these: in words; cited from earlier work.
The conditions of data set [3]: in words; cited from earlier work.
The next data set deals with glycine receptor. Nature of the data set: binding to the glycine receptor (general statement). The conditions noted are these: in words.
Another data set concerns rodents. The conditions noted are these: in words; cited from earlier work.
The test system of the next data set is pigeons. The following applies: in words; cited from earlier work.

Read-outs that look alike come from different tables or passages of the source.

Take `O=C(O)c1cc2ccccc2[nH]1` [indole-2-carboxylic acid]: the “affinity for the glycine binding site” value in data set [1] (in words) is on record as “relatively high receptor binding affinity”. Also, the blood/brain barrier penetration result in data set [2] (in words) is given as “cannot penetrate the blood/brain barrier”.
For the molecule `O=c1[nH]c2ccc([N+](=O)[O-])cc2c(O)c1[N+](=O)[O-]` [Compound 16b, 3,6-Dinitro-4-hydroxy-1,2-dihydroquinolin-2-one], the “activity relative to 16a” value with glycine/NMDA receptor (in words) is listed as “about as active as 16a”.
As for `O=C(O)c1cc(O)c2c(Cl)cc(Cl)cc2n1` [5,7-dichlorokynurenic acid], the “affinity for the glycine binding site” value in data set [1] (in words) is listed as “relatively high receptor binding affinity”. The blood/brain barrier penetration result in data set [2] (in vivo) was “cannot penetrate the blood/brain barrier”.
As to `O=c1[nH]c2cc(Cl)cc(Cl)c2[nH]c1=O` [5,7-dichloro-QX], the “potency relative to 5,7-dichlorokynurenic acid (DCK)” value in the data set with glycine/NMDA receptor turned out to be 20%.
As for `C[C@]12N[C@H](Cc3ccccc31)c1ccccc12` [MK-801], the Kd on PCP receptor is ~3 nM. For the same molecule, the neuroprotective efficacy entry in the data set on neurons is “neuroprotective efficacy both in vitro and in vivo”. In addition, in [3], the “PCP-like behavioral side effects” value is recorded as “adverse PCP-like behavioral side effects”.
Broadly, the Ki is the equilibrium dissociation constant of an inhibitor or competing ligand from its target. Read a low Ki as higher affinity. `O=c1[nH]c2cc(Cl)cc(Cl)c2c(O)c1[N+](=O)[O-]` [Compound 16c, 5,7-dichloro-3-nitro-4-hydroxy-1,2-dihydroquinolin-2-one]: in the data set on glycine/NMDA receptor, the “potency relative to 5,7-dichlorokynurenic acid (DCK)” value came to 19% and the Ki turned out to be 1400 nM.
Consider `O=C(O)c1cc(O)c2ccc(Cl)cc2n1` [7-Cl-kynurenic acid], for which the “affinity for the glycine binding site” value in [1] (in words) is recorded as “relatively high receptor binding affinity”. Also, the blood/brain barrier penetration entry in data set [2] (in words) is “cannot penetrate the blood/brain barrier”.
As for `O=c1[nH]c2ccccc2c(O)c1[N+](=O)[O-]` [Compound 16a, 3-Nitro-4-hydroxy-1,2-dihydroquinolin-2-one], in the data set on glycine/NMDA receptor, the “potency relative to 5,7-dichlorokynurenic acid (DCK)” value was 1.4% and affinity was put at a Ki of 18000 nM. Also, in the data set with glycine receptor, the “binding to the glycine receptor” value was “high binding” and the “selectivity for the glycine receptor” value is “highly selective”.
Turning to `COc1ccc2c(c1)[C@]13CCCC[C@@H]1[C@H](C2)N(C)CC3` [dextromethorphan], the neuroprotective efficacy result with neurons is “neuroprotective efficacy both in vitro and in vivo”.
As to “5,6-dichloro-3-nitro-4-hydroxy-1,2-dihydroquinolin-2-one [Compound 16f]”, the Ki on glycine/NMDA receptor was 800 nM.
Turning to `NC1CCN(O)C1=O` (stereo not drawn) [HA-966], in [1] (in words), the “affinity for the glycine binding site” value was “micromolar affinity” and the “mode of action at the glycine binding site” value was “partial agonist”. In data set [2] (in words), the blood/brain barrier penetration entry is “sufficiently penetrates the blood/brain barrier”.
For `CNC1(c2ccccc2Cl)CCCCC1=O` (stereo not drawn) [ketamine], the neuroprotective efficacy entry in the data set with neurons was “neuroprotective efficacy both in vitro and in vivo”.
For `O=C(O)[C@@H]1C[C@H](CP(=O)(O)O)CCN1` [CGS 19755], in the data set on neurons, the neuroprotective efficacy result was “neuroprotective efficacy”. The “PCP-like behavioral side effects” value in data set [3] was “adverse PCP-like behavioral side effects”.
For `NCC(=O)O` [glycine], the Kd in [1] (used in Cheng and Prusoff equation, read-out: known affinity of glycine for the glycine binding site) was 100 nM.
Consider `O=C(O)C1CC2CC(CP(=O)(O)O)CCC2CN1` (stereo not drawn) [LY274614], for which the neuroprotective efficacy result with neurons is recorded as “neuroprotective efficacy”.
`c1ccc(C2(N3CCCCC3)CCCCC2)cc1` [PCP, phencyclidine]: the neuroprotective efficacy result in the data set on neurons was “neuroprotective efficacy both in vitro and in vivo”. Also, the “PCP-like behavioral effects in rodents / animal models” value with rodents is reported as “behavioral excitation (hyperlocomotion)”. The “PCP-like behavioral effect in pigeons” value in the data set on pigeons was “characteristic katalepsy”.

Values taken from patent publication US5622965A, “4-hydroxy-3-nitro-1,2-dihydroquinolin-2-ones and the use thereof as excitatory amino acid and glycine receptor antagonists” (priority 1993, dated 1997).
